From patent US20050197350A1, “Novel quinoline, tetrahydroquinazoline, and pyrimidine derivatives and methods of treatment related to the use thereof” (TAISHO PHARMACEUTICAL CO., LTD., priority 2003, published 2005)

System: MCH receptors
Experiment: MCH receptor activity class (method not given)
Details: MCH receptor; class by percent of control at 10^-7 M or IC50

SMILES	class
CN(C)c1nc(N[C@H]2CC[C@@H](NC(=S)NCC3CCCO3)CC2)nc2c1CCCC2 (relative stereo) [compound 1958]	3 (Class 3 The value of percent of control at 10^−7 M was more than 60% or the value of IC50 was more than 200 nM.)
CN(C)c1nc(N[C@H]2CC[C@@H](NC(=S)NC34CC5CC(CC(C5)C3)C4)CC2)nc2c1CCCC2 (relative stereo) [compound 1962]	3 (Class 3 The value of percent of control at 10^−7 M was more than 60% or the value of IC50 was more than 200 nM.)
CC(NC(=S)N[C@H]1CC[C@@H](Nc2nc3c(c(N(C)C)n2)CCCC3)CC1)c1ccc(F)cc1 (relative stereo) [compound 2014]	3 (Class 3 The value of percent of control at 10^−7 M was more than 60% or the value of IC50 was more than 200 nM.)

Same assay, conditions: activity class 1-3: percent of control at 10^-7 M or IC50

SMILES	class
COC(CN[C@H]1CC[C@@H](Nc2nccc(N(C)C)n2)CC1)c1ccccc1 (relative stereo) [compound 1516]	3 (Class 3 The value of percent of control at 10^−7 M was more than 60% or the value of IC50 was more than 200 nM.)
CCOC(=O)[C@H](CC(C)C)NC(=O)N[C@H]1CC[C@@H](Nc2nc3c(c(N(C)C)n2)CCCC3)CC1 (relative stereo) [compound 1663]	3 (Class 3 The value of percent of control at 10^−7 M was more than 60% or the value of IC50 was more than 200 nM.)
COC(=O)[C@H](CCSC)NC(=O)N[C@H]1CC[C@@H](Nc2nc3c(c(N(C)C)n2)CCCC3)CC1 (relative stereo) [compound 1699]	3 (Class 3 The value of percent of control at 10^−7 M was more than 60% or the value of IC50 was more than 200 nM.)
CC(NC(=O)N[C@H]1CC[C@@H](Nc2nc3c(c(N(C)C)n2)CCCC3)CC1)c1cccc2ccccc12 (relative stereo) [compound 1704]	1 (Class 1: The value of percent of control at 10^−7 M was less than 40% or the value of IC50 was less than 50 nM.)
COC(=O)[C@H](Cc1ccccc1)NC(=O)N[C@H]1CC[C@@H](Nc2nc3c(c(N(C)C)n2)CCCC3)CC1 (relative stereo) [compound 1705]	3 (Class 3 The value of percent of control at 10^−7 M was more than 60% or the value of IC50 was more than 200 nM.)
CC(NC(=O)N[C@H]1CC[C@@H](Nc2nc3c(c(N(C)C)n2)CCCC3)CC1)c1ccccc1 (relative stereo) [compound 1706]	3 (Class 3 The value of percent of control at 10^−7 M was more than 60% or the value of IC50 was more than 200 nM.)

Same assay, conditions: activity class per percent of control at 10^-7 M or IC50

SMILES	class
CN(C)c1nc(N[C@H]2CC[C@@H](NC(=O)[C@H](CCCCNC(=O)c3ccccc3)NC(=O)c3ccccc3)CC2)nc2c1CCCC2 (relative stereo) [compound 980]	2 (Class 2: The value of percent of control at 10^−7 M was from 40% to 60% or the value of IC′50 was from 50 nM to 200 nM.)
CC(C(=O)N[C@H]1CC[C@@H](Nc2nc3c(c(N(C)C)n2)CCCC3)CC1)c1ccc(-c2ccccc2)c(F)c1 (relative stereo) [compound 984]	2 (Class 2: The value of percent of control at 10^−7 M was from 40% to 60% or the value of IC′50 was from 50 nM to 200 nM.)
COc1ccc2c(c1)C(CC(=O)N[C@H]1CC[C@@H](Nc3nc4c(c(N(C)C)n3)CCCC4)CC1)CC2=O (relative stereo) [compound 988]	3 (Class 3 The value of percent of control at 10^−7 M was more than 60% or the value of IC50 was more than 200 nM.)
CN(C)c1nc(N[C@H]2CC[C@@H](NC(=O)C(CC(=O)c3ccccc3)c3c[nH]c4ccccc34)CC2)nc2c1CCCC2 (relative stereo) [compound 991]	2 (Class 2: The value of percent of control at 10^−7 M was from 40% to 60% or the value of IC′50 was from 50 nM to 200 nM.)
CN(C)c1nc(N[C@H]2CC[C@@H](NC(=O)C(CC(=O)c3ccc(Br)cc3)c3c[nH]c4ccccc34)CC2)nc2c1CCCC2 (relative stereo) [compound 992]	3 (Class 3 The value of percent of control at 10^−7 M was more than 60% or the value of IC50 was more than 200 nM.)
CCc1cccc2c(C(CC(=O)c3ccc(C(C)(C)C)cc3)C(=O)N[C@H]3CC[C@@H](Nc4nc5c(c(N(C)C)n4)CCCC5)CC3)c[nH]c12 (relative stereo) [compound 996]	1 (Class 1: The value of percent of control at 10^−7 M was less than 40% or the value of IC50 was less than 50 nM.)
CN(C)c1nc(N[C@H]2CC[C@@H](NC(=O)C(CC(=O)c3ccc(C(C)(C)C)cc3)c3cn(C)c4ccccc34)CC2)nc2c1CCCC2 (relative stereo) [compound 997]	3 (Class 3 The value of percent of control at 10^−7 M was more than 60% or the value of IC50 was more than 200 nM.)
Cc1ccc(C(=O)CC(C(=O)N[C@H]2CC[C@@H](Nc3nc4c(c(N(C)C)n3)CCCC4)CC2)c2cn(C)c3ccccc23)cc1 (relative stereo) [compound 998]	2 (Class 2: The value of percent of control at 10^−7 M was from 40% to 60% or the value of IC′50 was from 50 nM to 200 nM.)
CCCN(CCC)C(=O)[C@H](CCC(=O)N[C@H]1CC[C@@H](Nc2nc3c(c(N(C)C)n2)CCCC3)CC1)NC(=O)c1ccccc1 (relative stereo) [compound 1006]	1 (Class 1: The value of percent of control at 10^−7 M was less than 40% or the value of IC50 was less than 50 nM.)
CN(C)c1nc(N[C@H]2CC[C@@H](NC(=O)C(CC(=O)c3ccc(Cl)cc3)SCc3ccc(Cl)cc3)CC2)nc2c1CCCC2 (relative stereo) [compound 1017]	3 (Class 3 The value of percent of control at 10^−7 M was more than 60% or the value of IC50 was more than 200 nM.)
Cc1ccc(C(=O)CC(SCc2ccc(Cl)cc2)C(=O)N[C@H]2CC[C@@H](Nc3nc4c(c(N(C)C)n3)CCCC4)CC2)cc1 (relative stereo) [compound 1018]	2 (Class 2: The value of percent of control at 10^−7 M was from 40% to 60% or the value of IC′50 was from 50 nM to 200 nM.)
CC1=C(CC(=O)N[C@H]2CC[C@@H](Nc3nc4c(c(N(C)C)n3)CCCC4)CC2)c2cc(F)ccc2/C1=C/c1ccc([S+](C)[O-])cc1 (relative stereo) [compound 1019]	1 (Class 1: The value of percent of control at 10^−7 M was less than 40% or the value of IC50 was less than 50 nM.)
CC(C(=O)N[C@H]1CC[C@@H](Nc2nc3c(c(N(C)C)n2)CCCC3)CC1)c1ccc(C(=O)c2cccs2)cc1 (relative stereo) [compound 1020]	2 (Class 2: The value of percent of control at 10^−7 M was from 40% to 60% or the value of IC′50 was from 50 nM to 200 nM.)
COC(C(=O)N[C@H]1CC[C@@H](Nc2nc3c(c(N(C)C)n2)CCCC3)CC1)c1ccccc1 (relative stereo) [compound 1052]	2 (Class 2: The value of percent of control at 10^−7 M was from 40% to 60% or the value of IC′50 was from 50 nM to 200 nM.)
CN(C)c1nc(N[C@H]2CC[C@@H](NC(=O)C3CCc4ccccc4C3)CC2)nc2c1CCCC2 (relative stereo) [compound 1053]	3 (Class 3 The value of percent of control at 10^−7 M was more than 60% or the value of IC50 was more than 200 nM.)
CN(C)c1nc(N[C@H]2CC[C@@H](CNC(=O)C(Cc3ccccc3)c3ccccc3)CC2)nc2c1CCCC2 (relative stereo) [compound 1066]	3 (Class 3 The value of percent of control at 10^−7 M was more than 60% or the value of IC50 was more than 200 nM.)
CN(C)c1nc(N[C@H]2CC[C@@H](CNC(=O)C3CC(=O)c4ccccc43)CC2)nc2c1CCCC2 (relative stereo) [compound 1071]	3 (Class 3 The value of percent of control at 10^−7 M was more than 60% or the value of IC50 was more than 200 nM.)
CCOc1ccc(C(=O)CC(C(=O)NC[C@H]2CC[C@@H](Nc3nc4c(c(N(C)C)n3)CCCC4)CC2)C2C(=O)N(c3ccccc3)N=C2C)cc1 (relative stereo) [compound 1080]	3 (Class 3 The value of percent of control at 10^−7 M was more than 60% or the value of IC50 was more than 200 nM.)
CC(CCN[C@H]1CC[C@@H](Nc2cc(N(C)C)c3ccccc3n2)CC1)c1ccccc1 (relative stereo) [compound 1106]	3 (Class 3 The value of percent of control at 10^−7 M was more than 60% or the value of IC50 was more than 200 nM.)

Same assay, conditions: class by percent of control at 10^-7 M or IC50

SMILES	class
CC(CCN[C@H]1CC[C@@H](Nc2nccc(N(C)C)n2)CC1)c1ccccc1 (relative stereo) [compound 1226]	3 (Class 3 The value of percent of control at 10^−7 M was more than 60% or the value of IC50 was more than 200 nM.)
CC(CN[C@H]1CC[C@@H](Nc2nccc(N(C)C)n2)CC1)c1ccccc1 (relative stereo) [compound 1231]	3 (Class 3 The value of percent of control at 10^−7 M was more than 60% or the value of IC50 was more than 200 nM.)
CC(CN[C@H]1CC[C@@H](Nc2nc3c(c(N(C)C)n2)CCCC3)CC1)c1ccccc1 (relative stereo) [compound 1352]	3 (Class 3 The value of percent of control at 10^−7 M was more than 60% or the value of IC50 was more than 200 nM.)
COC(CN[C@H]1CC[C@@H](Nc2cc(N(C)C)c3ccccc3n2)CC1)c1ccccc1 (relative stereo) [compound 1450]	3 (Class 3 The value of percent of control at 10^−7 M was more than 60% or the value of IC50 was more than 200 nM.)
CC(NC(=O)N[C@H]1CC[C@@H](Nc2nc3c(c(N(C)C)n2)CCCC3)CC1)c1ccc(Br)cc1 (relative stereo) [compound 1728, N-[1-(4-bromophenyl)ethyl]-N′-(cis-4-{[4-(dimethylamino)-5,6,7,8-tetrahydroquinazolin-2-yl]amino}cyclohexyl)urea]	2 (Class 2: The value of percent of control at 10^−7 M was from 40% to 60% or the value of IC′50 was from 50 nM to 200 nM.)
CCOC(=O)[C@H](Cc1ccccc1)NC(=O)N[C@H]1CC[C@@H](Nc2nc3c(c(N(C)C)n2)CCCC3)CC1 (relative stereo) [compound 1730]	3 (Class 3 The value of percent of control at 10^−7 M was more than 60% or the value of IC50 was more than 200 nM.)
CN(C)c1nc(N[C@H]2CC[C@@H](NC(=O)NC34CC5CC(CC(C5)C3)C4)CC2)nc2c1CCCC2 (relative stereo) [compound 1807]	3 (Class 3 The value of percent of control at 10^−7 M was more than 60% or the value of IC50 was more than 200 nM.)
